# Source: ChEMBL document CHEMBL5291721, “A preclinical secondary pharmacology resource illuminates target-adverse drug reaction associations of marketed drugs” (Nat Commun, 2023)
# *1 amine or outer side, *2 acyl side, *3 side chain or, on linkers, in order; H or OH if unused. Where a SMILES comes first, the peptide text is derived from it. Bridges are numbered along the chain shown (N, C = ends). [ ]: non-standard residue; d: D form. The star is where a group is joined. hTyr(3S-OH,4S-OH,3'-OSO3H) = N[C@H](C(=O)O)[C@H](O)[C@@H](O)c1ccc(O)c(OS(=O)(=O)O)c1; Orn(4R-OH,5R-OH) = O=C([C@H](C[C@@H](O)[C@@H](O)N[*:3])N[*:1])[*:2]; Pro(3S-OH,4S-Me) = C[C@H]1CN[C@H](C(=O)O)[C@H]1O; X1 = CCCCCOc1ccc(-c2cc(-c3ccc(C(=O)*)cc3)no2)cc1; Gln(3R-OH) = NC(=O)C[C@@H](O)[C@H](N)C(=O)O; Hyp = O=C(O)[C@@H]1C[C@@H](O)CN1
# Tests used:
# [1] = target: T1, Muscarinic acetylcholine receptor M1 (Homo sapiens, UniProt P11229); assay type: functional, cell-based
# T1 sequence (P11229 whole entry): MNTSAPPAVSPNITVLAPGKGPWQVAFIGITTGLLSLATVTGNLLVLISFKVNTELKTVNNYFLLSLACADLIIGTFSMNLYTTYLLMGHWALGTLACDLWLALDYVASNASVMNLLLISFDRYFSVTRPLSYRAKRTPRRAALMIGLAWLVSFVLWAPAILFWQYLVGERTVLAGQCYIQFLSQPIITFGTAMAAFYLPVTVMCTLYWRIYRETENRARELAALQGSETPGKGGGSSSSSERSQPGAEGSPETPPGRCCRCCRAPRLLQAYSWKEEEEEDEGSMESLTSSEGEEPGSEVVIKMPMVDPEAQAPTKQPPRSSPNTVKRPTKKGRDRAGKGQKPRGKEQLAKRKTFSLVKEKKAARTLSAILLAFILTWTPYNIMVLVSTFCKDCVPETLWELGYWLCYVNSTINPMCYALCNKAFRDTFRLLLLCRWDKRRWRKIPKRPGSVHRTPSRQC
# [2] = target: T2, Alpha-1A adrenergic receptor (Homo sapiens, UniProt P35348); assay type: functional, cell-based
# T2 sequence (P35348 whole entry): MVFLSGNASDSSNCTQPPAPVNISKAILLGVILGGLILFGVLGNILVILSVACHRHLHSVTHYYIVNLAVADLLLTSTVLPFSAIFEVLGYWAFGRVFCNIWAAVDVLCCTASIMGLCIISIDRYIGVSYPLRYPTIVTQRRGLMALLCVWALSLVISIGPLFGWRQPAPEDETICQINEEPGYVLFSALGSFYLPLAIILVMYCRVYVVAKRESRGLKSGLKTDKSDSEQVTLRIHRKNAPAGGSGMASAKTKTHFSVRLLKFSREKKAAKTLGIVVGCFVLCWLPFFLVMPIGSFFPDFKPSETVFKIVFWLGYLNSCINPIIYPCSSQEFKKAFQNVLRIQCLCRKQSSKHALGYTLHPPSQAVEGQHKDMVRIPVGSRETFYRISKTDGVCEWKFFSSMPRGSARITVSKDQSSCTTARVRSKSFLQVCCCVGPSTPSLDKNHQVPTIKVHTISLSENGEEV
# B2 bradykinin receptor = target: T3, B2 bradykinin receptor (Homo sapiens, UniProt P30411)
# T3 sequence (P30411 whole entry): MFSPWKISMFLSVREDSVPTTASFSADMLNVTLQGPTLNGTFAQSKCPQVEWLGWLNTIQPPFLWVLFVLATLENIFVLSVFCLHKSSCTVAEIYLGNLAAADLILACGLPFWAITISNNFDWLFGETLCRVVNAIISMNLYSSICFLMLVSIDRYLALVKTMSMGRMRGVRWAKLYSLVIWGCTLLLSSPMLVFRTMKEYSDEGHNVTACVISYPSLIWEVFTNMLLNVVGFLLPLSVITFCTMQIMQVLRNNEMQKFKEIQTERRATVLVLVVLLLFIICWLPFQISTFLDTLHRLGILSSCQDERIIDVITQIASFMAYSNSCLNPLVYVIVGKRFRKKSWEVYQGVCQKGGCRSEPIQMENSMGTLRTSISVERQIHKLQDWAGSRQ
# Histamine H2 receptor = Histamine H2 receptor (Homo sapiens, UniProt P25021); assay type: functional, cell-based
# Histamine H2 receptor, sequence (P25021 whole entry): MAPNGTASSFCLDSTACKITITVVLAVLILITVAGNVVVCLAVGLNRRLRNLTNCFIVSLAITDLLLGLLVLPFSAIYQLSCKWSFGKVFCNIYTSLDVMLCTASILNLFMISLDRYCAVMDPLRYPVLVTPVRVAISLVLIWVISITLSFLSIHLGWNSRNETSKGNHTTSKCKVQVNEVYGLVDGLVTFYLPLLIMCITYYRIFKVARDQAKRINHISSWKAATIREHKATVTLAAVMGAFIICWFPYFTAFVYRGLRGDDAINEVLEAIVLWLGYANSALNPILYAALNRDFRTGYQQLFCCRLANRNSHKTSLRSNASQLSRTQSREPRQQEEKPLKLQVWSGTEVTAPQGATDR
# Melanocortin receptor 3 = Melanocortin receptor 3 (Homo sapiens, UniProt P41968)
# Melanocortin receptor 3, sequence (P41968 whole entry): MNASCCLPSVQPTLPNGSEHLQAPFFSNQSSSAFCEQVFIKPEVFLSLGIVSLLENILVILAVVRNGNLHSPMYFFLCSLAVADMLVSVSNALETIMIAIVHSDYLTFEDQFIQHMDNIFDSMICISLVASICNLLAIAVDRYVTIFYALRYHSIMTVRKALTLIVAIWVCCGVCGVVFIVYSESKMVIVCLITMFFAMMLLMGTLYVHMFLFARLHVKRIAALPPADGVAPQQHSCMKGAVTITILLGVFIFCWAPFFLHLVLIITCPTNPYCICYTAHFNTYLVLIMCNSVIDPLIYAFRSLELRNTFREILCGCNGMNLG
# [3] = target: Kappa-type opioid receptor (Homo sapiens, UniProt P41145)
# Kappa-type opioid receptor, sequence (P41145 whole entry): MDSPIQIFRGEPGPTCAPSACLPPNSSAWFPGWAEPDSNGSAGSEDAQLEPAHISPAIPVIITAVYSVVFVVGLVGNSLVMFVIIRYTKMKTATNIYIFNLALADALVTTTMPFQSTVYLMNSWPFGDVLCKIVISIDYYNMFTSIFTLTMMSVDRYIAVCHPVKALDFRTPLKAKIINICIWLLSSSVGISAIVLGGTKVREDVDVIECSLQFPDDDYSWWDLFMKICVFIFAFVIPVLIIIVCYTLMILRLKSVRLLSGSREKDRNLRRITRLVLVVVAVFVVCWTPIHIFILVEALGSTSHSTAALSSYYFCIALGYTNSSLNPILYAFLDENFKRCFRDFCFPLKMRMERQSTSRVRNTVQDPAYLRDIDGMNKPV
# [4] = target: T4, 5-hydroxytryptamine receptor 1A (Homo sapiens, UniProt P08908); assay type: functional, cell-based
# T4 sequence (P08908 whole entry): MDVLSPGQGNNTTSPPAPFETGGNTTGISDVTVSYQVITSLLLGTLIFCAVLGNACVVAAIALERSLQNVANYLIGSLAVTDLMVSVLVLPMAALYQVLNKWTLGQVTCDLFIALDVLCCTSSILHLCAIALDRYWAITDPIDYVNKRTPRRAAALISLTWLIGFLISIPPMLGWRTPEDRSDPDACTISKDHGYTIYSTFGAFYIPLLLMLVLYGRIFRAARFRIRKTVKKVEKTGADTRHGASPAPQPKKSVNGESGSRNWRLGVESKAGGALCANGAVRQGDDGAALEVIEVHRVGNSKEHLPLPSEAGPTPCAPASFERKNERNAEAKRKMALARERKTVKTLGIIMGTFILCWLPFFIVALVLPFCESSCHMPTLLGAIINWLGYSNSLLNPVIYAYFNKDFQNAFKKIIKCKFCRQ
# [5] = target: 5-hydroxytryptamine receptor 2B (Homo sapiens, UniProt P41595); assay type: functional, cell-based
# 5-hydroxytryptamine receptor 2B, sequence (P41595 whole entry): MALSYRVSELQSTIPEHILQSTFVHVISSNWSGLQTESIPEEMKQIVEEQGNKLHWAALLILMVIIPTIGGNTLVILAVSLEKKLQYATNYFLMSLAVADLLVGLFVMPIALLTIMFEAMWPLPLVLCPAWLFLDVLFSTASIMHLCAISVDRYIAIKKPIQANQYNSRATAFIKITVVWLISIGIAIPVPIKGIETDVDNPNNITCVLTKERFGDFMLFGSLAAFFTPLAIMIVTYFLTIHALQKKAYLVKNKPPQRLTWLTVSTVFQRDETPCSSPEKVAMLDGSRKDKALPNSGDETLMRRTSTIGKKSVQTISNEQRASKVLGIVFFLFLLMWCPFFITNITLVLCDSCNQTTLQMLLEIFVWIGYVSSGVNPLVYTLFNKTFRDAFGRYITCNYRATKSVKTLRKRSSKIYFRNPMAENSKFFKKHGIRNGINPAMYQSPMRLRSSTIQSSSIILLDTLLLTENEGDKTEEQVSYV
# Cannabinoid receptor 1 = Cannabinoid receptor 1 (Homo sapiens, UniProt P21554); assay type: functional, cell-based
# Cannabinoid receptor 1, sequence (P21554 whole entry): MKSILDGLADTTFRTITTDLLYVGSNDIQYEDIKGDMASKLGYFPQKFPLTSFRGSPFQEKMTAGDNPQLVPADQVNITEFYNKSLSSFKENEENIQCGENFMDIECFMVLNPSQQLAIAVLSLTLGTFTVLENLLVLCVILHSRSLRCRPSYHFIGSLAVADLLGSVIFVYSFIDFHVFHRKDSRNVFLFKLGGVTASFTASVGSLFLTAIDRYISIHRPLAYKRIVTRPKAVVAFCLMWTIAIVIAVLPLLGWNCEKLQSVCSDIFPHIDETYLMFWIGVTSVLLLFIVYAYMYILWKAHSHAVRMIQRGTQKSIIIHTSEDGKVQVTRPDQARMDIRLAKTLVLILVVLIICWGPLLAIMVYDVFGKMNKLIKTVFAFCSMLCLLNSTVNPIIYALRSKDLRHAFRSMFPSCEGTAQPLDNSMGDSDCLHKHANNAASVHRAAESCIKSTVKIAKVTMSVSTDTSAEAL
# Motilin receptor = Motilin receptor (Homo sapiens, UniProt O43193)
# Motilin receptor, sequence (O43193 whole entry): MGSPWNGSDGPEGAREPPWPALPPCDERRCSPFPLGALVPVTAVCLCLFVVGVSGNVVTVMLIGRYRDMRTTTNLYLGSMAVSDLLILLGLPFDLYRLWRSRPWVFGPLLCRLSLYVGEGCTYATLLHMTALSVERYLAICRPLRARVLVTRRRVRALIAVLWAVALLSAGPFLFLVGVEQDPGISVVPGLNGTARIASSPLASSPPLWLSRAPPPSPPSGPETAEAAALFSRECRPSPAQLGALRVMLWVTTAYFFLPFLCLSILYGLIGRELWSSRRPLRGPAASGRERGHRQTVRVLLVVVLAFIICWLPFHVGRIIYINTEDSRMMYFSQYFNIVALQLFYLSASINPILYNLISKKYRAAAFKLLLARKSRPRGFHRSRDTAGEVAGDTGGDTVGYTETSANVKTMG
# Thromboxane A2 receptor = target: T5, Thromboxane A2 receptor (Homo sapiens, UniProt P21731)
# T5 sequence (P21731 whole entry): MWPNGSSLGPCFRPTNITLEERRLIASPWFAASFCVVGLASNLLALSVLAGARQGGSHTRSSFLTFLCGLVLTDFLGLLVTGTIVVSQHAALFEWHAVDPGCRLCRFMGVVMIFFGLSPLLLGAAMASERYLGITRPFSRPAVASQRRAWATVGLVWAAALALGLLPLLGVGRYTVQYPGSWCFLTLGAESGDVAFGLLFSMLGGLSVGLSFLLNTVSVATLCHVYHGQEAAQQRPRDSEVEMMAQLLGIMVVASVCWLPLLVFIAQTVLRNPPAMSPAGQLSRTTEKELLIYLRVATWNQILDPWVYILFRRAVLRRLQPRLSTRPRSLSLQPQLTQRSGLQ
# Further: assay procedure not described here.
Structure (SMILES),AC50 [1],AC50 [2],AC50 (B2 bradykinin receptor),AC50 (Histamine H2 receptor),AC50 (Melanocortin receptor 3),AC50 [3],AC50 [4],AC50 [5],AC50 (Cannabinoid receptor 1),AC50 (Motilin receptor),AC50 (Thromboxane A2 receptor)
C=C1c2c(Cl)ccc(O)c2C(=O)C2=C(O)[C@]3(O)C(=O)C(C(N)=O)=C(O)[C@@H](N(C)C)[C@@H]3[C@@H](O)[C@H]12 [MECLOCYCLINE],> 30 µM,> 30 µM,,,,,,,,,
NC(=O)c1nc(F)c[nH]c1=O,> 30 µM,> 30 µM,,,,,,,,,
O=C(Nc1cccc2c(=O)cc(-c3nnn[nH]3)oc12)c1ccc(OCCCCc2ccccc2)cc1,> 30 µM,> 30 µM,,,,,,,,,
CC1(C)O[C@@H]2[C@@H](CO[C@@]3(COS(N)(=O)=O)OC(C)(C)O[C@@H]23)O1 [TOPIRAMATE],> 30 µM,> 30 µM,> 30 µM,> 10 µM,> 30 µM,> 10 µM,> 10 µM,> 10 µM,> 30 µM,> 10 µM,> 30 µM
N=C(N)NCc1cccc([123I])c1 [IOBENGUANE I 123],> 30 µM,10.7 µM,,,,,,,,,
Cc1ccc([C@@H]2O[C@H](CO)[C@@H](O)[C@H](O)[C@H]2O)cc1Cc1ccc(-c2ccc(F)cc2)s1 [CANAGLIFLOZIN ANHYDROUS],> 30 µM,> 30 µM,,,,,,,,,
CN(C)CCN(Cc1ccc(Cl)cc1)c1ccccn1 [CHLOROPYRAMINE],2.27 µM,6.52 µM,,,,,,,,,
CC(=O)S[C@@H]1CC2=CC(=O)CC[C@]2(C)[C@H]2CC[C@@]3(C)[C@@H](CC[C@@]34CCC(=O)O4)[C@H]12 [SPIRONOLACTONE],,,> 30 µM,> 10 µM,> 30 µM,14.8 µM,> 30 µM,29 µM,> 30 µM,> 30 µM,> 30 µM
CC(C)(N)C(=O)N[C@H](Cc1c[nH]c2ccccc12)C(=O)N[C@H](Cc1c[nH]c2ccccc12)NC=O [MACIMORELIN],> 30 µM,> 30 µM,,,,,,,,,
COC(=O)[C@H](c1ccccc1Cl)N1CCc2sccc2C1 [CLOPIDOGREL],,,> 30 µM,> 30 µM,> 30 µM,14.9 µM,> 30 µM,2 µM,> 30 µM,> 30 µM,> 30 µM
Nc1nc(O)c2ncn(COC(CO)CO)c2n1 [GANCICLOVIR],,,> 30 µM,> 30 µM,> 30 µM,> 30 µM,> 30 µM,> 30 µM,> 30 µM,> 30 µM,> 30 µM
Cc1cc(CC(=O)O)n(C)c1C(=O)c1ccc(Cl)cc1 [ZOMEPIRAC],,,> 30 µM,> 30 µM,> 30 µM,> 30 µM,> 30 µM,> 30 µM,> 30 µM,> 30 µM,> 30 µM
O=C(O)c1cc(=O)c2ccccc2o1 [CHROMOCARB],> 30 µM,> 30 µM,,,,,,,,,
CC1(C)O[C@@H]2C[C@H]3[C@@H]4CCC5=CC(=O)CC[C@]5(C)[C@@]4(F)[C@@H](O)C[C@]3(C)[C@]2(C(=O)CCl)O1 [HALCINONIDE],,> 30 µM,,,,,,,,,
C[C@]12CCC(=O)C=C1CC[C@@H]1[C@@H]2[C@@H](O)C[C@@]2(C)[C@H]1CC[C@]2(O)C(=O)COC(=O)CCC(=O)O [HYDROCORTISONE HEMISUCCINATE ANHYDROUS],> 30 µM,> 30 µM,,,,,,,,,
Cn1c(=O)c2[nH]cnc2n(C)c1=O [THEOPHYLLINE],,> 10 µM,> 30 µM,> 10 µM,> 30 µM,> 10 µM,> 10 µM,> 10 µM,> 30 µM,> 10 µM,> 30 µM
N[C@@H](CSSC[C@H](N)C(=O)O)C(=O)O [CYSTINE],> 30 µM,> 30 µM,,,,,,,,,
O=C1NC(=O)C(c2ccccc2)(c2ccccc2)N1 [PHENYTOIN],,,> 30 µM,> 10 µM,> 30 µM,> 10 µM,> 30 µM,> 30 µM,> 30 µM,> 30 µM,> 30 µM
C#C[C@]1(O)CC[C@H]2[C@@H]3CCC4=C(CCC(=O)C4)[C@H]3CC[C@@]21C [NORETHYNODREL],[…],17.4 µM,,,,,,,,,
CC(/C=C1\SC(=S)N(CC(=O)O)C1=O)=C\c1ccccc1,,,> 10 µM,> 30 µM,> 30 µM,28 µM,21 µM,> 30 µM,> 30 µM,> 30 µM,27 µM
COc1ccnc(C[S+]([O-])c2nc3ccc(OC(F)F)cc3[nH]2)c1OC (stereo unspecified) [PANTOPRAZOLE],,,> 30 µM,> 10 µM,> 30 µM,> 10 µM,> 10 µM,> 10 µM,> 30 µM,> 10 µM,> 30 µM
CN1CCC[C@@H]1Cc1c[nH]c2ccc(CCS(=O)(=O)c3ccccc3)cc12,,> 30 µM,,,,,,,,,
CC(C)COc1ccc(CNC(=O)N(Cc2ccc(F)cc2)C2CCN(C)CC2)cc1 [PIMAVANSERIN],29.9 µM,11.4 µM,,,,,,,,,
CNC[C@H](O)c1cccc(O)c1 [PHENYLEPHRINE],> 30 µM,,> 30 µM,> 10 µM,> 30 µM,> 10 µM,> 10 µM,> 30 µM,> 30 µM,> 10 µM,> 30 µM
"CCCCCOc1ccc(-c2cc(-c3ccc(C(=O)N[C@H]4C[C@@H](O)[C@@H](O)NC(=O)[C@@H]5[C@@H](O)[C@@H](C)CN5C(=O)[C@H]([C@H](O)CC(N)=O)NC(=O)[C@H]([C@H](O)[C@@H](O)c5ccc(O)c(OS(=O)(=O)O)c5)NC(=O)[C@@H]5C[C@@H](O)CN5C(=O)[C@H]([C@@H](C)O)NC4=O)cc3)no2)cc1 [MICAFUNGIN] (X1-[Orn(4R-OH,5R-OH)]T[Hyp][hTyr(3S-OH,4S-OH,3'-OSO3H)][Gln(3R-OH)][Pro(3S-OH,4S-Me)]; lactam 1-C)",> 30 µM,> 30 µM,,,,,,,,,
NCCc1ccc(O)cc1 [TYRAMINE],> 30 µM,> 30 µM,,,,,,,,,
C[C@]12CC[C@@H]3c4ccc(O)cc4CC[C@H]3[C@@H]1CC[C@@H]2OC(=O)CCC1CCCC1 [ESTRADIOL CYPIONATE],> 30 µM,> 30 µM,,,,,,,,,
CCCCNc1ccc(C(=O)OCCN(C)C)cc1 [TETRACAINE],,> 30 µM,> 30 µM,> 10 µM,> 30 µM,> 10 µM,> 10 µM,33 µM,> 30 µM,> 10 µM,> 30 µM
